Reference: ChEMBL document CHEMBL1152051, “Synthesis and preliminary pharmacological evaluation of 2-benzyloxy substituted aryl ketones as 5-HT4 receptor antagonists” (Bioorg Med Chem Lett, 1994)

How the values were obtained:
[1] = target: 5-hydroxytryptamine receptor 4 (Rattus norvegicus) (UniProt Q62758); assay: Compound was tested against 5-HT4 receptor through antagonism of 5-HT mediated relaxation of rat, carbachol contracted esophageal muscularis mucosae; format: functional
[2] = target: 5-hydroxytryptamine receptor 4 (Cavia porcellus, UniProt O70528); assay: Compound was tested for binding affinity against 5-HT4 receptor in guinea pig striata using [3H]GR-113808 as radioligand
[3] = target: 5-hydroxytryptamine receptor 4 (Rattus norvegicus, UniProt Q62758); assay: Compound was tested against 5-HT4 receptor through agonism of 5-HT mediated relaxation of rat, carbachol contracted esophageal muscularis mucosae; format: functional
Chain of 5-hydroxytryptamine receptor 4 (Rattus norvegicus, UniProt Q62758) (Q62758 whole entry): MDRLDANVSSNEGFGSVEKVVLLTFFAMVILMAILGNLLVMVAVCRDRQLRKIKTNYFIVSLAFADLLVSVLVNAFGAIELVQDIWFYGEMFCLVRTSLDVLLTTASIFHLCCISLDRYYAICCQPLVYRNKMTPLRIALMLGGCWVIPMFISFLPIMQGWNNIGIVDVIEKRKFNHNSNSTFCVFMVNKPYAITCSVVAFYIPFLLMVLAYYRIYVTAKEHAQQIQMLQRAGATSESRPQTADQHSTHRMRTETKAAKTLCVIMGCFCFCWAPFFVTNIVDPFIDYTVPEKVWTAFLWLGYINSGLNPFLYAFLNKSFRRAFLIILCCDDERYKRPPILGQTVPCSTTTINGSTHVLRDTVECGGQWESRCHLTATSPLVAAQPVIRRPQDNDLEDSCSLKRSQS

Chain of 5-hydroxytryptamine receptor 4 (Cavia porcellus, UniProt O70528) (O70528 whole entry): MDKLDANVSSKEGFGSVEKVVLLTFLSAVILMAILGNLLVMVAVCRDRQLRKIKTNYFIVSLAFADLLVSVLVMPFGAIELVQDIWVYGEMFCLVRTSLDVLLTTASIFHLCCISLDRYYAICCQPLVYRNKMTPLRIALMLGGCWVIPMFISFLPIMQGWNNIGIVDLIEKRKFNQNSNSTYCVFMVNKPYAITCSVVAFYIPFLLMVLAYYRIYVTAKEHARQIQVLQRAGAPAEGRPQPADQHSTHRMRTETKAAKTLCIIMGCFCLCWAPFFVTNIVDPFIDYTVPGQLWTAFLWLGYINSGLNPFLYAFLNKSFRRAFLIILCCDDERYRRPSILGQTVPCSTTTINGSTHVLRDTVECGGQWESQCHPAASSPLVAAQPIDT
Chain of 5-hydroxytryptamine receptor 4 (Rattus norvegicus) (Q62758 whole entry): as the sequence (Q62758 whole entry) above

Row | Compound | pKb [1] | Ki [2] [nM] | EC50 [3] [nM]
1 | COc1cc(COc2cc(N)c(Cl)cc2C(=O)CCCCN2CCC(NC(N)=O)CC2)cc(OC)c1 | 8.5 |  | 
2 | COc1cc(COc2cc(N)c(Cl)cc2C(=O)CCCCN2CCCCC2)cc(OC)c1 | 8.5 |  | 
3 | COc1cc(COc2cc(N)c(Cl)cc2C(=O)CCCCN2CCC(CCNS(C)(=O)=O)CC2)cc(OC)c1 | 8.1 |  | 
4 | CS(=O)(=O)NCCN1CCC(CCC(=O)c2cc(Cl)c(N)cc2OCc2ccccc2)CC1 | 8.1 | 1.78 | 
5 | CCCCCN1CCC(CCC(=O)c2cc(Cl)c(N)cc2OCc2cc(OC)cc(OC)c2)CC1 | 9.1 | 0.813 | 
6 | COc1cc(COc2cc(N)c(Cl)cc2C(=O)CCC2CCN(CCNS(C)(=O)=O)CC2)cc(OC)c1 | 9.2 | 0.741 | 
7 | CCOc1cc(N)c(Cl)cc1C(=O)CCCCN1CCCCC1 | < 7 |  | 
8 | CCCOc1cc(N)c(Cl)cc1C(=O)CCCCN1CCCCC1 |  |  | 2000
9 | COc1cc(COc2cc(N)c(Cl)cc2C(=O)CCCCN2CCC(O)CC2)cc(OC)c1 | 8.3 |  | 
10 | COc1cc(COc2cc(N)c(Cl)cc2C(=O)CCCCN2CCC(c3ccccc3)CC2)cc(OC)c1 | 7.7 |  | 
11 | COc1cc(COc2cc(N)c(Cl)cc2C(=O)CCCCN2CCC(OC)CC2)cc(OC)c1 | 8.4 |  | 
12 | COc1ccc(COc2cc(N)c(Cl)cc2C(=O)CCCCN2CCCCC2)cc1OC | 8.5 |  | 
13 | COc1ccc(CCOc2cc(N)c(Cl)cc2C(=O)CCCCN2CCCCC2)cc1OC | 6.8 |  | 
14 | COc1cc(COc2cc(N)c(Cl)cc2C(=O)CCCCN2CCC(C)CC2)cc(OC)c1 | 8.3 |  | 
15 | CCCCN1CCC(CCC(=O)c2cc(Cl)c(N)cc2OCc2cc(OC)cc(OC)c2)CC1 | 8.9 | 0.479 | 
16 | CCCCN1CCC(COC(=O)c2cc(Cl)c(N)c3c2OCCO3)CC1 |  | 0.0129 | 
17 | Cn1cc(C(=O)OCC2CCN(CCNS(C)(=O)=O)CC2)c2ccccc21 | 9 |  | 
18 | COc1cc(N)c(Cl)cc1C(=O)CCCCN1CCCCC1 |  |  | 39.8
19 | CCCC1CCN(CCCCC(=O)c2cc(Cl)c(N)cc2OCc2cc(OC)cc(OC)c2)CC1 | 7.7 |  | 
20 | COc1cc(COc2cc(N)c(Cl)cc2C(=O)CCC2CCN(CCN(C)S(C)(=O)=O)CC2)cc(OC)c1 | 9.1 | 0.468 | 
21 | COc1ccc(COc2cc(N)c(Cl)cc2C(=O)CCCCN2CCCCC2)cc1 | 8.4 |  | 
22 | COc1cc(COc2cc(N)c(Cl)cc2C(=O)CCCCN2CCC(C(N)=O)CC2)cc(OC)c1 | 8.4 |  | 
23 | COc1cc(COc2cc(N)c(Cl)cc2C(=O)CCCCN2CCC(NS(C)(=O)=O)CC2)cc(OC)c1 | 8.4 |  | 
24 | COc1cc(COc2cc(N)c(Cl)cc2C(=O)CCCCN2CCC(CNS(C)(=O)=O)CC2)cc(OC)c1 | 8.9 |  | 
25 | COc1cc(COc2cc(N)c(Cl)cc2C(=O)CCC2CCN(CCCNS(C)(=O)=O)CC2)cc(OC)c1 | 8.8 | 0.339 | 
